This note sets out measurements from US5571687A, “Modulators of multidrug resistance transporters” (Duke University, priority 1994, dated 1996).

Like-named read-outs stand apart in the source and are kept apart here.

For data set [1], the target named is native P-gp expressed in the drug-resistant human breast cancer cell line MCF7-MDR (Homo sapiens, UniProt P08183). The settings on record: mcf7-mdr membranes, 20 min. An excerpt: physiologic and non-physiologic compounds, including prenylcysteines and analogs thereof, can be tested in vitro for their ability to serve as P-gp substrates (and thus modulators of MDR transporter activity), both in terms of stimulating the intrinsic ATPase activity of the transporter and competing for drug binding. Insect cells (eg Sf9 cells) infected with baculovirus containing MDR1 cDNA (available from the American Type Culture Collection, Rockville, Md.) can be used as a source of membranes suitable for use in such in vitro screens. Membranes from drug-induced resistant cells can also be used (eg, MCF7-MDR breast cancer cells). Details of an appropriate protocol for testing compounds for their ability to stimulate P-gp-associated ATPase are given in the Examples. The method described involves incubating MDR transporter-containing membranes with the test compound and measuring the level of vanadate sensitive release of inorganic phosphate from ATP (see Sarkadi et al, J. Biol. Chem. 267:4854 (1992)). […]
P-gp-associated ATPase activity was measured by determining vanadate-sensitive release of inorganic phosphate from ATP as described (Sarkadi et al, J. Biol. Chem. 267:4854 (1992)). […] P-gp-associated ATPase activity in MCF7-MDR cells was measured using the same condition except that 50 mM Mes-Tris, pH 6.8 was replaced by 50 mM Tris-HCl, pH 7.5. […]

Data set [2] deals with P-glycoprotein (human MDR1 expressed in Sf9 cells) (Homo sapiens, UniProt P08183, G185V). Description: P-gp-associated ATPase activity (vanadate-sensitive release of inorganic phosphate from ATP), stimulation, membranes of Sf9 cells expressing human MDR1. The source says:
physiologic and non-physiologic compounds, including prenylcysteines and analogs thereof, can be tested in vitro for their ability to serve as P-gp substrates (and thus modulators of MDR transporter activity), both in terms of stimulating the intrinsic ATPase activity of the transporter and competing for drug binding. Insect cells (eg Sf9 cells) infected with baculovirus containing MDR1 cDNA (available from the American Type Culture Collection, Rockville, Md.) can be used as a source of membranes suitable for use in such in vitro screens. Membranes from drug-induced resistant cells can also be used (eg, MCF7-MDR breast cancer cells). Details of an appropriate protocol for testing compounds for their ability to stimulate P-gp-associated ATPase are given in the Examples. The method described involves incubating MDR transporter-containing membranes with the test compound and measuring the level of vanadate sensitive release of inorganic phosphate from ATP (see Sarkadi et al, J. Biol. Chem. 267:4854 (1992)).
Sf9 cells were grown in Grace's insect culture media supplemented with 10% fetal bovine serum (HyClone), 0.1% Pluronic F-68, 100 unit/ml penicillin and 100 μg/ml streptomycin. Sf9 cells were infected with baculovirus according to established procedures (O'Reilly et al, Baculovirus Expression Vectors--A Laboratory Manual, New York: W.H. Freeman & Co. (1992)). Recombinant baculovirus containing the human MDR1V185 cDNA (Germann et al, Biochemistry 29:2295 (1990)) was provided by Dr. M. Gottesman (MDR1 cDNAs are available from the American Type Culture Collection, Rockville, Md.). Mock-infection was carried out using recombinant baculovirus containing the cDNA encoding a protein prenyltransferase. […] These cells were grown in Iscove's Modified Dulbecco's Media (MDM) supplemented with 10% fetal bovine serum. The MCF7-MDR cells were exposed to 10 μM doxorubicin every 8-10 passages to maintain the drug-resistant phenotype.
Sf9 membranes were prepared from cells harvested 3 days after infection with specified baculovirus as described (Sarkadi et al, J. Biol. Chem. 267:4854 (1992)). MCF7 membranes from both wild-type and drug-resistant cell lines were prepared by nitrogen cavitation procedures (Cornwell et al, J. Biol. Chem. 261:7921 (1986)), flash-frozen in liquid nitrogen, and stored at -80° C. until use.
P-gp-associated ATPase activity was measured by determining vanadate-sensitive release of inorganic phosphate from ATP as described (Sarkadi et al, J. Biol. Chem. 267:4854 (1992)). Sf9 membranes containing 5-10 μg protein were incubated in 100 μl of 50 mM Mes-Tris, pH 6.8, 50 mM KCl, 2 mM DTT, 2 mM EGTA, 1 mM ouabain, 5 mM sodium azide, 5 mM Mg/ATP. P-gp-associated ATPase activity in MCF7-MDR cells was measured using the same condition except that 50 mM Mes-Tris, pH 6.8 was replaced by 50 mM Tris-HCl, pH 7.5. […] Reactions were conducted at 37° C. for 20 min.

In the next data set the target is P-gp (Homo sapiens, UniProt P08183, G185V). Description: Inhibition of basal and drug-stimulated P-gp ATPase activity. The class given is biochemical. The source says: FIG. 3. Ability of acetyl farnesyl methylester (AFCME) to block drug stimulated ATPase of MDR.
FIG. 4. Interaction of prenylcysteine methylamides and prenylcysteine-containing dipeptides with P-gp. The compounds were purified by reversephase HPLC chromatography and analyzed for their ability to stimulate the ATPase activity of P-gp in Sf9 membranes and, in the case of AFCMA, to inhibit FCME-stimulated ATPase activity as described for AFCME in Example 4. Left panel--Stimulation of P-gp ATPase activity in Sf9 membranes. Increasing concentration of FCMA (.box-solid.), farnesylated γGlu-Cys (unmethylated F-dipeptide, Δ), and the methylated form of farnesylated γGlu-Cys (methylated F-dipeptide, .tangle-solidup.) were analyzed. Right panel AFCMA inhibition of P-gp ATPase activity in Sf9 membranes. Increasing concentrations of AFCMA were added to membranes from Sf9 cells expressing P-gp either with no added drug (.largecircle.) or along with 20 μM […] as an ATPase stimulator (.circle-solid.).
The ATPase assay can also be used to identify test compounds that inhibit P-gp activity, ie P-gp antagonists, which are also potential agents for reversing P-gp-mediated drug resistance. In this type of assay, the ability of a selected test compound to reduce P-gp-ATPase which has been stimulated by a drug known to elicit this activity (eg verapimil or farnesylcysteine methyl ester (FCME) is examined. Increasing concentrations of the selected test compound and a fixed amount of the stimulatory drug are mixed, added to the P-gp preparation, and ATPase activity determined. A dose-dependent inhibition of ATPase activity by the selected compound indicates an antagonist.
Reactions were conducted at 37° C. for 20 min.

Setting [3] is: read-out: maximum stimulation of P-gp ATPase.

With `COC(=O)[C@@H](N)CSC/C=C(\C)CC/C=C(\C)CCC=C(C)C` [FCME, S-farnesylcysteine methyl ester], the “increase of P-gp-catalyzed ATP hydrolysis” value in data set [1] is reported as ~ 2.5 fold. In addition, in data set [2], the “concentration of maximum stimulation of P-gp ATPase” value was in the range of 10 to 20 µM and the “stimulation of P-gp ATPase activity (in words)” value is given as “stimulated this activity in a fashion very similar to that of verapamil”. In data set [2] (read-out: Maximal stimulation of ATPase activity), the Emax is about 450%. Moreover, the Emax in data set [2] (setting [3]) lay in the range of 400 to 500%.

Take `CNC(=O)C(N)CSCC=C(C)CCC=C(C)CCC=C(C)C` (stereo not drawn) [FCMA]: in data set [2], the “stimulation of P-gp ATPase activity (in words)” value was “potent in stimulation”.

On to `CC(C)=CCCC(C)=CCCC(C)=CCSC[C@H](NC(=O)CC[C@H](N)C(=O)O)C(=O)O` [F-γGlu- Cys], for which, in data set [2], the “stimulation of P-gp ATPase activity (in words)” value was “stimulate P-gp ATPase activity in a methylation-dependent fashion”.

For the molecule `CC(C)=CCC/C(C)=C/CC/C(C)=C/CC/C(C)=C/CSC[C@H](N)C(=O)O` [GGC, S-geranylgeranylcysteine], in data set [2], the “stimulation of P-gp ATPase activity (in words)” value is on record as “ineffective in stimulating the ATPase of P-gp”.

Take `COC(=O)[C@@H](N)CSC/C=C(\C)CC/C=C(\C)CC/C=C(\C)CCC=C(C)C` [GGCME, S-geranylgeranylcysteine methyl ester]: the “increase of P-gp-catalyzed ATP hydrolysis” value in data set [1] is on record as ~ 2.5 fold. Moreover, in data set [2], the “concentration of maximum stimulation of P-gp ATPase” value was 10 to 20 µM and the “stimulation of P-gp ATPase activity (in words)” value is “stimulated this activity in a fashion very similar to that of verapamil”. Further, the Emax in data set [2] (setting [3]) was in the range of 400 to 500%.

With `CC(C)=CCCC(C)=CCCC(C)=CCO` [FOH, Farnesol, reference compound], the “ATPase stimulation (in words)” value in data set [2] is “ineffective”.

Regarding `COC(=O)[C@H](CSCC=C(C)CCC=C(C)CCC=C(C)C)NC(C)=O` [AFCME, N-acetyl-S-farnesylcysteine methyl ester], the “concentration at which the transporter's basal ATPase activity is inhibited” value on P-gp (basal ATPase activity) is over 20 µM. Moreover, the “blocking of basal and drug (FCME, verapamil)-stimulated ATPase activity (in words)” value on P-gp (dose-dependent, FIG. 3) was “can block both the basal and drug-stimulated ATPase activities of P-gp in a dose-dependent fashion”. Also, the “inhibition of basal ATPase activity (in words)” value at P-gp (higher concentrations (above 20 μM), preliminary analysis) is “marked inhibition of even the basal ATPase activity”. Also, the “stimulation of ATPase activity at low concentrations (in words)” value at P-gp (low (<20 μM) concentrations, preliminary analysis) is given as “weak stimulation of the ATPase activity”. For the same molecule, in data set [2], the “ATPase stimulation (in words)” value was “essentially abolished its stimulatory effect”.

As to `CC(=O)N[C@@H](CSCC=C(C)CCC=C(C)CCC=C(C)C)C(=O)O` [AFC, N-acetyl-S-farnesylcysteine], the “ATPase stimulation (in words)” value in data set [2] is listed as “did not stimulate the transporter's ATPase activity”.

Consider `CNC(=O)C(CSCC=C(C)CCC=C(C)CCC=C(C)C)NC(C)=O` (stereo not drawn) [AFCMA], for which, on P-gp (Sf9 membranes, FIG. 4 right panel), the “inhibition of drug-stimulated P-gp ATPase activity (in words)” value was “potent in stimulation (FCMA) and inhibition of drug-stimulated (AFCMA) P-gp ATPase activities”.

In the case of `CC(C)=CCCC(C)=CCCC(C)=CCSC[C@H](N)C(=O)O` [FC, S-farnesylcysteine], the “stimulation of P-gp ATPase activity (in words)” value in data set [2] was “ineffective in stimulating the ATPase of P-gp”.
